Values quoted from earlier work, collected in US20110159080A1, “COMPOSITION COMPRISING LIPOSOME-ENTRAPPED DOXORUBICIN AND METHODS OF ADMINISTRATION” (priority 2008, published 2011).

Key:
[1] = system: recurrent stage III or IV ovarian cancer
[2] = system: platinum resistant advanced ovarian carcinoma; details: human, in vivo
[3] = system: primary or secondary platinum-resistant ovarian cancer; details: bevacizumab 15 mg/kg every 21 days
[4] = system: persistent or recurrent epithelial ovarian cancer
[5] = system: xenotransplant models of colon cancer; details: nude (athymic) mice

Compound: N.N.O=C([O-])C1(C(=O)[O-])CCC1.[Pt+2] [carboplatin]
- response rate ([1]; DOXIL 30 mg/m^2 plus carboplatin AUC 5 or carboplatin alone AUC 5, every 4 weeks, p=0.02): 32%
- estimated median PFS ([1]; every 4 weeks): 8 months
- estimated median overall survival ([1]; every 4 weeks, p=0.02): 18 months

Compound: CC[C@@]1(O)C(=O)OCc2c1cc1n(c2=O)Cc2cc3c(CN(C)C)c(O)ccc3nc2-1 [topotecan]
- toxicity profile (recurrent ovarian cancer; DOXIL 50 mg/m^2 every 4 weeks, topotecan 1.5 mg/m^2/day for 5 days every 3 weeks): significant myelosuppression and alopecia
- median OS (recurrent ovarian cancer; subset with platinum-sensitive disease, p=0.008): 71.1 weeks
- median PFS (recurrent ovarian cancer; subset with platinum-sensitive disease, p=0.037): 23.3 weeks

Compound: bevacizumab: recombinant humanized monoclonal IgG1 antibody that binds to and inhibits human vascular endothelial growth factor (VEGF)
- cases of perforation [2]: no cases of perforation
- 6-month PFS rate [3]: 27%
- response rate [3]: 16%
- complete responses (number of subjects) ([4]; 62 eligible subjects): two
- subjects surviving progression free for at least 6 months ([4]; 62 eligible subjects): 40.3%
- subjects with clinical response ([4]; bevacizumab 15 mg/kg IV every 21 days, 62 eligible subjects): 21.0%
- Grade 3 adverse events: GI (number) ([4]; in vivo): 3
- Grade 3 adverse events: coagulation (number) ([4]; in vivo): 1
- Grade 3 adverse events: constitutional (number) ([4]; in vivo): 1
- Grade 3 adverse events: dyspnea (number) ([4]; in vivo): 1
- Grade 3 adverse events: hematologic (number) ([4]; in vivo): 1
- Grade 3 adverse events: hepatic (number) ([4]; in vivo): 1
- Grade 3 adverse events: hypertension (number) ([4]; in vivo): 6
- Grade 3 adverse events: pain (number) ([4]; in vivo): 3
- Grade 3 adverse events: thromboembolism (number) ([4]; in vivo): 1
- Grade 4 adverse events: proteinuria (number) ([4]; in vivo): 1
- Grade 4 adverse events: pulmonary embolus (number) ([4]; in vivo): 1
- Grade 4 adverse events: vomiting and constipation (number) ([4]; in vivo): 1
- median PFS ([4]; in vivo): 4.7 months
- median overall survival ([4]; in vivo): 17 months
- median response duration ([4]; in vivo): 10 months
- effect on metastatic disease progression [5]: inhibition of metastatic disease progression
- effect on microvascular growth [5]: reduction in microvascular growth
